Laboratory results taken from patent publication US8440710B2, “HSL inhibitors useful in the treatment of diabetes” (Hoffmann-La Roche Inc., priority 2009, dated 2013).

Target: T1, human HSL (Homo sapiens, UniProt Q05469)
T1 construct: generate a full length human HSL ORF with a 3′-His6 tag; made in house; host or cells: High 5 insect cells (baculovirus, pFast-BAC)
T1 sequence (Q05469 1-1076): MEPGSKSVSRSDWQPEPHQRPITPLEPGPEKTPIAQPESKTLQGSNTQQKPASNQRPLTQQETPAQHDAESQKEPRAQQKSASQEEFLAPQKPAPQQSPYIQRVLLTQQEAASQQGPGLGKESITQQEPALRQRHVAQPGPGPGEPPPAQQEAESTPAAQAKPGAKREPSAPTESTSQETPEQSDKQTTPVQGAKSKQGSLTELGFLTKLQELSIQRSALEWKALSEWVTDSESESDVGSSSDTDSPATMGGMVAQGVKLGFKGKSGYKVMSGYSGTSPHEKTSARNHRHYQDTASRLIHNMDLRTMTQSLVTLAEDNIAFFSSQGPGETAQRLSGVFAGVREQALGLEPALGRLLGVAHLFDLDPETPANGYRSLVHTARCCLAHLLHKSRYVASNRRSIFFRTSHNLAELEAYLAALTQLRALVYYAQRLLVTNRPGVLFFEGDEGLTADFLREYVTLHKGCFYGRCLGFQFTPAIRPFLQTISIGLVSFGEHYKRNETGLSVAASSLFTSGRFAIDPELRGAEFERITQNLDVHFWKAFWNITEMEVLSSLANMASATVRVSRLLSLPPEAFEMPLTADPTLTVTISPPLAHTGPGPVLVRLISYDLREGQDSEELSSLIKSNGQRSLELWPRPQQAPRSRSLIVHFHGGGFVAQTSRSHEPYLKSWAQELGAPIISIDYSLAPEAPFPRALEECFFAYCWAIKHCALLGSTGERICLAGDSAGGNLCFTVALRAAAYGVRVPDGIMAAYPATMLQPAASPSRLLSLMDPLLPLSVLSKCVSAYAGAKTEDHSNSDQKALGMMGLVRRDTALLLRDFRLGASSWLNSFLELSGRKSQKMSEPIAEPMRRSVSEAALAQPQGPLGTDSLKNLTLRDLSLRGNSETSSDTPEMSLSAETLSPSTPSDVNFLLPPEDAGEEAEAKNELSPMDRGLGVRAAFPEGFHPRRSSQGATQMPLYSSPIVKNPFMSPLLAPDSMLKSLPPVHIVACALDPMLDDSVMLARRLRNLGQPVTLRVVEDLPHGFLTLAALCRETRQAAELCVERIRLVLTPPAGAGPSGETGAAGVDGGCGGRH
Assay: Human Hormone-Sensitive Lipase (HSL) enzyme inhibition assay (colorimetric, DMPT substrate)
Format: biochemical
Conditions: human full length HSL-His6, 2,3-dimercapto-1-propanol tributyrate substrate, 37° C. 20 minutes, absorbance at 405 nm; read-out: HSL hum IC50
Summary of the method: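 Full-length human HSL with C-terminal His6, expressed in baculovirus-infected High 5 cells and Ni-NTA purified, was added (15 ug/ml stock) to 1.5 mM DMPT in 100 mM MOPS pH 7.2, 0.2 mg/ml fatty acid-free BSA containing compound. After 20 min at 37 °C, DTNB with SDS/Triton X-100 was added; A405 read after 15 min at RT.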

SMILES	IC50 [µM]
CC[C@]1(O)CC[C@]2(CCN(c3ccc(OCC(F)(F)F)nc3)C2=O)CC1 [Example 168, (5α,8α)-8-Ethyl-8-hydroxy-2-[6-(2,2,2-trifluoro-ethoxy)-pyridin-3-yl]-2-aza-spiro[4.5]decan-1-one]	0.07
CC[C@]1(O)CC[C@]2(CCN(c3ccc(CCC(F)(F)F)cc3)C2=O)CC1 [Example 169, (5α,8α)-8-Ethyl-8-hydroxy-2-[4-(3,3,3-trifluoro-propyl)-phenyl]-2-aza-spiro[4.5]decan-1-one]	0.05
CCC[C@]1(O)CC[C@]2(CCN(c3ccc(CCC(F)(F)F)cc3)C2=O)CC1 [Example 170, (5α,8α)-8-Hydroxy-8-propyl-2-[4-(3,3,3-trifluoro-propyl)-phenyl]-2-aza-spiro[4.5]decan-1-one]	0.05
CC[C@]1(O)CC[C@]2(CCN(c3ccc(O[C@@H](C)C(F)(F)F)nc3)C2=O)CC1 [Example 171, (5α,8α)-8-Ethyl-8-hydroxy-2-[6-((S)-2,2,2-trifluoro-1-methyl-ethoxy)-pyridin-3-yl]-2-aza-spiro[4.5]decan-1-one]	0.03
CCC[C@]1(O)CC[C@]2(CCN(c3ccc(O[C@@H](C)C(F)(F)F)nc3)C2=O)CC1 [Example 172, (5α,8α)-8-Hydroxy-8-propyl-2-[6-((S)-2,2,2-trifluoro-1-methyl-ethoxy)-pyridin-3-yl]-2-aza-spiro[4.5]decan-1-one]	0.02
C[C@H](Oc1ccc(N2CC[C@]3(CC[C@@](O)(C(F)(F)F)CC3)C2=O)cn1)C(F)(F)F [Example 173, (5α,8α)-8-Hydroxy-8-trifluoromethyl-2-[6-((S)-2,2,2-trifluoro-1-methyl-ethoxy)-pyridin-3-yl]-2-aza-spiro[4.5]decan-1-one]	0.05
C[C@@H](Oc1ccc(N2CC[C@]3(CC[C@@](O)(C(F)(F)F)CC3)C2=O)cn1)C(F)(F)F [Example 174, (5α,8α)-8-Hydroxy-8-trifluoromethyl-2-[6-((R)-2,2,2-trifluoro-1-methyl-ethoxy)-pyridin-3-yl]-2-aza-spiro[4.5]decan-1-one]	0.06
CC[C@]1(O)CC[C@]2(CCN(c3ccc(O[C@H](C)C(F)(F)F)nc3)C2=O)CC1 [Example 175, (5α,8α)-8-Ethyl-8-hydroxy-2-[6-((R)-2,2,2-trifluoro-1-methyl-ethoxy)-pyridin-3-yl]-2-aza-spiro[4.5]decan-1-one]	0.04
CCC[C@]1(O)CC[C@]2(CCN(c3ccc(O[C@H](C)C(F)(F)F)nc3)C2=O)CC1 [Example 176, (5α,8α)-8-Hydroxy-8-propyl-2-[6-((R)-2,2,2-trifluoro-1-methyl-ethoxy)-pyridin-3-yl]-2-aza-spiro[4.5]decan-1-one]	0.02
CC(Oc1ccc(N2CC[C@]3(CC[C@@](O)(C(F)(F)F)CC3)C2=O)cc1)C(F)(F)F (stereo partly drawn) [Example 177, (5α,8α)-8-Hydroxy-8-trifluoromethyl-2-[4-(2,2,2-trifluoro-1-methyl-ethoxy)-phenyl]-2-aza-spiro[4.5]decan-1-one]	0.03
C[C@H](Oc1ccc(N2CC[C@]3(CC[C@@](O)(C(F)(F)F)CC3)C2=O)cc1)C(F)(F)F [Example 177a, (5α,8α)-8-Hydroxy-8-trifluoromethyl-2-[4-((S)-2,2,2-trifluoro-1-methyl-ethoxy)-phenyl]-2-aza-spiro[4.5]decan-1-one]	0.04
C[C@@H](Oc1ccc(N2CC[C@]3(CC[C@@](O)(C(F)(F)F)CC3)C2=O)cc1)C(F)(F)F [Example 177b, (5α,8α)-8-Hydroxy-8-trifluoromethyl-2-[4-((R)-2,2,2-trifluoro-1-methyl-ethoxy)-phenyl]-2-aza-spiro[4.5]decan-1-one]	0.04
O=C1N(c2ccc(OCC(F)(F)F)nc2)CC[C@]12CC[C@@](O)(C(F)(F)F)CC2 [Example 178, (5α,8α)-8-Hydroxy-2-[6-(2,2,2-trifluoro-ethoxy)-pyridin-3-yl]-8-trifluoromethyl-2-aza-spiro[4.5]decan-1-one]	0.15
